Assay results published in PMC12153356, “An antisense oligomer conjugate with unpredicted bactericidal activity against Fusobacterium nucleatum” (mBio, 2025).

Columns and labels:
Assay in all cases: Growth inhibition assay
[1] = test system: F. nucleatum subsp. nucleatum ATCC 25586 (FNN25); type: cell-based, Fusobacterium nucleatum subsp. nucleatum ATCC 25586; conditions: 10 µM, MHB, 1 × 10^5 CFU/mL input, three replicates
Text: (§1) The following fusobacterial strains were used in this study: Fusobacterium nucleatum subsp. nucleatum ATCC 23726 (FNN23) acquired from the American Type Culture Collection (ATCC), F. nucleatum subsp. nucleatum ATCC 25586 (FNN25), F. nucleatum subsp. vincentii ATCC 49256 (FNV), and F. nucleatum subsp. polymorphum ATCC 10953 (FNP) acquired from the German Collection of Microorganisms and Cell Culture (DSMZ), F. nucleatum subsp. animalis 7_1 (FNA) and F. periodonticum 2_1_31 (FPE) both received as a kind gift from E. Allen-Vercoe (University of Guelph, Canada). All strains were routinely grown at 37°C in 80:10:10 (N2:H2:CO2) anaerobic conditions on 2% agar supplemented BHI plates (BHI, 1% [wt:vol] dried yeast extract, 1% [vol:vol] 50% sterile-filtered glucose solution, 5 µg/mL of hemin; 1% [vol:vol] fetal bovine serum) from frozen 20% glycerol stocks kept at −80°C. For liquid growth, the strains were cultured in Columbia broth (ColB; BD Difco). Precultures were prepared 24 h before inoculating the working culture at a 1:50 dilution in fresh ColB until OD600 0.5 was reached. Cultures were then diluted in non-cation adjusted Mueller-Hinton Broth (MHB, BD Difco) to the desired CFU/mL number. P. gingivalis (DSM 20709) was purchased from DSMZ and grown at 37°C in anaerobic conditions as mentioned above on 2% agar supplemented BHI+ plates (BHI, 1% [wt:vol] dried yeast extract, 1% [vol:vol] 50% sterile filtered glucose solution, 5 µg/ml of hemin; 10% [vol:vol] fetal bovine serum; and 1 µg/mL vitamin K3) for 4 days. […]
(§2) To determine the MIC value, broth microdilutions were performed according to the standard protocol with some modifications ([119]). […] Bacterial growth was monitored by measuring OD600 every 20 min with constant shaking in a plate reader (Biotek) under the normal atmospheric environment or positioned in the anaerobic chamber with double orbital shaking every 20 min prior to each measurement with 237 cpm at 37°C for 120 h.

[2] = test system: F. nucleatum subsp. vincentii ATCC 49256 (FNV); type: cell-based, Fusobacterium nucleatum subsp. vincentii ATCC 49256; conditions: 10 µM, MHB, 1 × 10^5 CFU/mL input, three replicates
Text: (§3) The following fusobacterial strains were used in this study: Fusobacterium nucleatum subsp. nucleatum ATCC 23726 (FNN23) acquired from the American Type Culture Collection (ATCC), F. nucleatum subsp. nucleatum ATCC 25586 (FNN25), F. nucleatum subsp. vincentii ATCC 49256 (FNV), and F. nucleatum subsp. polymorphum ATCC 10953 (FNP) acquired from the German Collection of Microorganisms and Cell Culture (DSMZ), F. nucleatum subsp. animalis 7_1 (FNA) and F. periodonticum 2_1_31 (FPE) both received as a kind gift from E. Allen-Vercoe (University of Guelph, Canada). All strains were routinely grown at 37°C in 80:10:10 (N2:H2:CO2) anaerobic conditions on 2% agar supplemented BHI plates (BHI, 1% [wt:vol] dried yeast extract, 1% [vol:vol] 50% sterile-filtered glucose solution, 5 µg/mL of hemin; 1% [vol:vol] fetal bovine serum) from frozen 20% glycerol stocks kept at −80°C. For liquid growth, the strains were cultured in Columbia broth (ColB; BD Difco). […]
as §2

[3] = test system: P. gingivalis (DSM 20709); type: cell-based, Porphyromonas gingivalis; conditions: 10 µM, MHB, 1 × 10^5 CFU/mL input, anaerobic, OD600 for 144 h
Text: as §3, with “Difco). Precultures were prepared 24 h before inoculating the working culture at a 1:50 dilution in fresh ColB until OD600 0.5 was reached.” for “Difco).”
To determine the MIC value, broth microdilutions were performed according to the standard protocol with some modifications ([119]). […] […] a plate reader (Biotek) under the normal atmospheric environment or positioned in the anaerobic chamber with double orbital […]

[4] = test system: F. periodonticum 2_1_31 (FPE); type: cell-based, Fusobacterium periodonticum 2_1_31; conditions: 10 µM, MHB, 1 × 10^5 CFU/mL input, three replicates
Text: as §1, §2

E. coli Nissle 1917 = type: cell-based, Escherichia coli Nissle 1917; conditions: 10 µM, MHB, 1 × 10^5 CFU/mL input, aerobic, 24 h
Protocol: Aerobic bacterial culture was conducted with E. coli K12 MG1655 (provided by D. Lee), E. coli Nissle 1917, and S. enterica serovar Typhimurium SL1344 (provided by D. Bumann, Biocenter Basel, Switzerland). The strains were streaked on lysogeny broth plates, incubated o.n. at 37°C and cultured in non-cation-adjusted MHB with aeration at 37°C and 220 rpm constant shaking.
To determine the MIC value, broth microdilutions were performed according to the standard protocol with some modifications ([119]). An overnight bacterial culture was diluted in a fresh ColB medium and grown to OD600 0.5 (mid-exponential phase). Fusobacteria were then diluted 1:2,500 or 1:250 in fresh MHB to obtain 1 × 10^5 CFU/mL or 1 × 10^6 CFU/mL as indicated. To determine the growth inhibition of P. gingivalis, an o.n. culture grown in BHI+ was diluted 1:1,500 in MHB to obtain 1 × 10^5 CFU/mL. E. coli K12, E. coli Nissle 1917, and S. enterica o.n. cultures grown in MHB were diluted 1:1,800 in fresh MHB to obtain 1 × 10^5 CFU/mL. […] Bacterial growth was monitored by measuring OD600 every 20 min with constant shaking in a plate reader (Biotek) under the normal atmospheric environment or positioned in the anaerobic chamber with double orbital shaking every 20 min prior to each measurement with 237 cpm at 37°C for 120 h.

[5] = test system: F. nucleatum subsp. polymorphum ATCC 10953 (FNP); type: cell-based, Fusobacterium nucleatum subsp. polymorphum ATCC 10953; conditions: 10 µM, MHB, 1 × 10^5 CFU/mL input, three replicates
Text: as §1, §2

(RXR)4XB-GACATAATTGT [FUS79, non-targeting (RXR)4XB-PNA 11-mer control, (RXR)4XB-…]
Growth inhibition of FNN25 [1]: inhibited the growth
Growth inhibition of FNV [2]: inhibited the growth of all strains, except FNV
Growth inhibition of P. gingivalis [3]: no growth inhibition
Growth inhibition of FPE [4]: inhibited the growth
Growth inhibition of E. coli Nissle 1917 (E. coli Nissle 1917): no growth inhibition
Growth inhibition of FNP [5]: inhibited the growth

RXRRXRRXRRXRXB [PNAscr]
Growth inhibition of FNN25 [1]: growth retardation compared with the water control
Growth inhibition of FNV [2]: growth retardation compared with the water control
Growth inhibition of P. gingivalis [3]: no growth inhibition
Growth inhibition of FPE [4]: growth retardation compared with the water control
Growth inhibition of E. coli Nissle 1917 (E. coli Nissle 1917): no growth inhibition
Growth inhibition of FNP [5]: growth retardation compared with the water control
